The source of these data is patent US7501428B2, “Quinazoline thiazolinones” (Hoffmann-La Roche Inc., priority 2004, dated 2009).

The experiment has as its target T1, recombinant human CDK1/Cyclin B complex (Homo sapiens, UniProt P06493).
T1 construct: made in house; host or cells: High Five insect cells (baculovirus) for CDK1/GST-cyclin B; M15 E. coli for the Rb substrate
Nature of the experiment: CDK1/Cyclin B kinase assay (FlashPlate or HTRF). In kind it is biochemical. The settings on record: Rb protein substrate, Ki=IC50/(1+[S]/Km). Here is the method: To determine inhibition of CDK1 activity, either FlashPlate™ (NEN™-Life Science Products) assay or HTRF assay was performed. Both types of kinase assays were carried out using recombinant human CDK1/Cyclin B complex. GST-cyclinB (GST-cycB) and CDK1 cDNA clones in baculovirus vectors were provided by Dr. W. Harper at the Baylor College of Medicine, Houston, Tex. Proteins were co-expressed in High Five™ insect cells and the complex was purified on glutathione Sepharose resin (Pharmacia, Piscataway, N.J.) as previously described (Harper, J. W. et al. Cell 1993, 75, 805-816). A 6×-Histidine tagged truncated form of retinoblastoma (Rb) protein (amino acid 386-928) was used as the substrate for the CDK1/Cyclin B assay (the expression plasmid was provided by Dr. Veronica Sullivan, Department of Molecular Virology, Roche Research Centre, Welwyn Garden City, United Kingdom). The Rb protein is a natural substrate for phosphorylation by CDK1 (see Herwig and Strauss Eur. J. Biochem. Vol. 246 (1997) pp. 581-601 and the references cited therein). The expression of the 62Kd protein was under the control of an IPTG inducible promoter in an M15 E. coli strain. Cells were lysed by sonication and purification was carried out by binding lysates at pH 8.0 to a Ni-chelated agarose column pretreated with 1 mM imidazole. The resin was then washed several times with incrementally decreasing pH buffers to pH 6.0, and eluted with 500 mM imidazole. Eluted protein was dialyzed against 20 mM HEPES pH 7.5, 30% glycerol, 200 mM NaCl, and 1 mM DTT. Purified Rb fusion protein stocks were quantitated for protein concentration, aliquoted, and stored at −70° C.
For the FlashPlate kinase assay, 96-well FlashPlates were coated with Rb protein at 10 μg/ml, using 100 μl per well. Plates were incubated at 4° C. overnight or at room temperature for 3 hours on a shaker. […] Plates were washed four times with the wash buffer, sealed, and counted on the TopCount scintillation counter (Packard Instrument Co., Downers Grove, Ill.]. The percent inhibition of Rb phosphorylation, which is a measure of the inhibition of CDK activity, was determined according to the following formula:
[formula] where “test compound” refers to the average counts per minute of the test duplicates, “nonspecific” refers to the average counts per minute when no CDK1/Cyclin B, etc., was added, and “total” refers to the average counts per minute when no compound was added. […] The value of the inhibitor constant Ki is calculated by the following: Ki=IC50/(1+[S]/Km), where [S] is the ATP concentration and Km is Michaelis constant.
The Homogeneous Time Resolved Fluorescence (HTRF) kinase assay was carried out in 96-well polypropylene plates (BD Biosciences, Bedford, Mass.). […]
On the technique in general: In TR-FRET formats the signal depends on donor and acceptor labels being close together.

T1 sequence (P06493 whole entry): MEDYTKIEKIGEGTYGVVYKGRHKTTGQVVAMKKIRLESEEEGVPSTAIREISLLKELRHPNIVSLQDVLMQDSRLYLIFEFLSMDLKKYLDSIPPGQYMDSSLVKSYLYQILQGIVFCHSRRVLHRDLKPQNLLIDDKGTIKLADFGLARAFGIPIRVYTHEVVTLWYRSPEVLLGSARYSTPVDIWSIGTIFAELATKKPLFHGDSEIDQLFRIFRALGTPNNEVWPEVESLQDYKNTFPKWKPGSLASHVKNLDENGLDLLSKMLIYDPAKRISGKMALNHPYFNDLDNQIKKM
T1 sequence (P14635 whole entry partner): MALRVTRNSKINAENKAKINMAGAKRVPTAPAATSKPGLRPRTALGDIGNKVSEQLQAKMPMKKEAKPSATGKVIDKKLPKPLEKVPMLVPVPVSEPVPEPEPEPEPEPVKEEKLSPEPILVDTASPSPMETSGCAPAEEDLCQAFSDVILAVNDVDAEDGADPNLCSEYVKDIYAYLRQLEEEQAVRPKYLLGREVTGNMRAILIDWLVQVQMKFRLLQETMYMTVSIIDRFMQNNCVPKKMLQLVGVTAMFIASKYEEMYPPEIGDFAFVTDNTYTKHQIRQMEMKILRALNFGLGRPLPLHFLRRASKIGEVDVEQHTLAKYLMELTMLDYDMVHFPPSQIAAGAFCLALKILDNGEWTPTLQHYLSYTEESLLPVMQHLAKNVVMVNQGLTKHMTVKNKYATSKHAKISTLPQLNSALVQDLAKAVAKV

What is called Ki is the dissociation constant of the complex between target and ligand, obtained from inhibition or displacement. With `O=C1N=C(NCc2cccs2)S/C1=C\c1ccc2ncncc2c1` [Example 1, 5-[1-Quinazolin-6-yl-meth-(Z)-ylidene]-2-[(thiophen-2-ylmethyl)-amino]-thiazol-4-one], the Ki amounted to 1220 nM.
For the compound `COc1cc(F)ccc1NC1=NC(=O)/C(=C/c2ccc3ncncc3c2)S1` [Example 5, 2-(4-Fluoro-2-methoxy-phenylamino)-5-[1-quinazolin-6-yl-meth-(Z)-ylidene]-thiazol-4-one], the Ki worked out at 1840 nM.
Turning to `O=C1N=C(NCCc2cccc(F)c2)S/C1=C\c1ccc2ncncc2c1` [Example 3, 2-[2-(3-Fluoro-phenyl)-ethylamino]-5-[1-quinazolin-6-yl-meth-(Z)-ylidene]-thiazol-4-one], the Ki worked out at 881 nM.
For the compound `O=C1N=C(N[C@@H](CO)Cc2ccccc2)S/C1=C\c1ccc2ncncc2c1` [Example 7, 2-((R)-1-Hydroxymethyl-2-phenyl-ethylamino)-5-[1-quinazolin-6-yl-meth-(Z)-ylidene]-thiazol-4-one], the Ki was found to be 1110 nM.
